The values that follow come from patent publication US20240246908A1 (ORION CORPORATION, priority 2021, published 2024).

pIC50: −log10 of the molar value.

This assay concerns YAP-TEAD. As to the kind of experiment: TEAD inhibition, Hippo Pathway TEAD Reporter MCF-7 luciferase assay. The assay is classed as cell-based. To be noted: Homo sapiens, MCF7, 24 h, Hippo Pathway TEAD Reporter MCF-7 cells, luciferase activity after 24 h; read-out: IC50 of the test compounds on YAP-TEAD inhibition (Group). Summed up:
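MCF-7 cells carrying a TEAD-responsive firefly luciferase reporter, with nuclear YAP1 driving constitutive expression, were treated the day after plating with compounds (11 concentrations, 4 replicates; 0.1% DMSO control). After 24 h, luciferase was read by ONE-Glo luminescence and IC50 determined.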
`COc1ccc(Oc2ccc(C(F)(F)F)cn2)cc1NC(=O)[C@@H]1CNC(=O)N1C` [Compound 130, (S)—N-(2-Methoxy-5-((5-(trifluoromethyl)pyridin-2-yl)oxy)phenyl)-3-methyl-2-oxoimidazolidine-4-carboxamide]: the pIC50 (as a rule, the negative decadic logarithm of the IC50, by convention in mol/L) was more than 7.30.
The same measure for `COc1ccc(Oc2ccc(C(F)(F)F)cn2)cc1NC(=O)C1CNC(=O)N1C1CC1` (centres unmarked) [Compound 131, 3-Cyclopropyl-N-(2-methoxy-5-((5-(trifluoromethyl)pyridin-2-yl)oxy)phenyl)-2-oxoimidazolidine-4-carboxamide]: more than 7.30.
The same measure for `COc1ccc(Oc2ccc(C(F)(F)F)cc2)cc1NC(=O)[C@@]1(C)CCC(=O)N1C` [Compound 134, (R)—N-(2-methoxy-5-(4-(trifluoromethyl)phenoxy)phenyl)-1,2-dimethyl-5-oxopyrrolidine-2-carboxamide]: more than 7.30; for `COc1ccc(Oc2ccc(C(F)(F)F)cc2)cc1NC(=O)[C@]1(C)CCC(=O)N1C` [Compound 135, (S)—N-(2-Methoxy-5-(4-(trifluoromethyl)phenoxy)phenyl)-1,2-dimethyl-5-oxo-pyrrolidine-2-carboxamide]: 6.52 to 7.30; for `COc1ccc(Oc2ccc(C(F)(F)F)cc2)cc1NC(=O)C1CCC(=O)N1CC(N)=O` (centres unmarked) [Compound 136, 1-(2-Amino-2-oxoethyl)-N-(2-methoxy-5-(4-(trifluoromethyl)phenoxy)phenyl)-5-oxopyrrolidine-2-carboxamide]: more than 7.30.
Consider `COc1ccc(Oc2ccc(C(F)(F)F)cc2)cc1NC(=O)C1CCC(=O)N1c1cnn(C)c1` (centres unmarked) [Compound 137, N-(2-Methoxy-5-(4-(trifluoromethyl)phenoxy)phenyl)-1-(1-methyl-1H-pyrazol-4-yl)-5-oxopyrrolidine-2-carboxamide], for which the pIC50 is 5.70 to 6.52.
The same measure for `COc1ccc(Oc2ccc(C(F)(F)F)cc2)cc1NC(=O)C1CCC(=O)N1C1CCOC1` (centres unmarked) [Compound 138, N-(2-Methoxy-5-(4-(trifluoromethyl)phenoxy)phenyl)-5-oxo-1-(tetrahydrofuran-3-yl)pyrrolidine-2-carboxamide]: 6.52 to 7.30; for `COc1ccc(Oc2ccc(C(F)(F)F)cc2)cc1NC(=O)C1CN(C)C(=O)N1C` (centres unmarked) [Compound 139, N-(2-Methoxy-5-(4-(trifluoromethyl)phenoxy)phenyl)-1,3-dimethyl-2-oxo-imidazolidine-4-carboxamide]: more than 7.30.
Next, `COc1ccc(Oc2ccc(C(F)(F)F)cc2)cc1NC(=O)[C@H]1CNC(=O)N1C` [Compound 140, (R)—N-(2-Methoxy-5-(4-(trifluoromethyl)phenoxy)phenyl)-3-methyl-2-oxo-imidazolidine-4-carboxamide]: 6.52 to 7.30; `COc1ccc(Oc2ccc(C(F)(F)F)cc2)cc1NC(=O)[C@@H]1CNC(=O)N1C` [Compound 141, (S)—N-(2-Methoxy-5-(4-(trifluoromethyl)phenoxy)phenyl)-3-methyl-2-oxoimidazolidine-4-carboxamide]: more than 7.30.
Next, `COc1ccc(Oc2ccc(C(F)(F)F)cc2)cc1NC(=O)C1CN(C)C(=O)N1C(C)=O` (centres unmarked) [Compound 142, 3-Acetyl-N-(2-methoxy-5-(4-(trifluoromethyl)phenoxy)phenyl)-1-methyl-2-oxoimidazolidine-4-carboxamide]: 5.70 to 6.52; `COc1ccc(Oc2ccc(C(F)(F)F)cc2)cc1NC(=O)[C@@H]1CC(OC)C(=O)N1C` (stereo partly drawn) [Compound 143, (2S)-4-Methoxy-N-(2-methoxy-5-(4-(trifluoromethyl)phenoxy)phenyl)-1-methyl-5-oxopyrrolidine-2-carboxamide]: more than 7.30.
Consider `COc1ccc(Oc2ccc(C(F)(F)F)cc2)cc1NC(=O)C1CNC(=O)N1` (centres unmarked) [Compound 144, N-(2-Methoxy-5-(4-(trifluoromethyl)phenoxy)phenyl)-2-oxoimidazolidine-4-carboxamide], for which the pIC50 is 6.52 to 7.30.
The same measure for `COc1ccc(Oc2ccc(C(F)(F)F)cc2)cc1NC(=O)C1CCC(=O)N1CC1CC1` (centres unmarked) [Compound 147, 1-(Cyclopropylmethyl)-N-(2-methoxy-5-(4-(trifluoromethyl)phenoxy)phenyl)-5-oxopyrrolidine-2-carboxamide]: 6.52 to 7.30; for `COc1ccc(Oc2ccc(C(F)F)cc2)cc1NC(=O)C1CNC(=O)N1C` (centres unmarked) [Compound 149, N-(5-(4-(Difluoromethyl)phenoxy)-2-methoxyphenyl)-3-methyl-2-oxoimidazoli-dine-4-carboxamide]: more than 7.30.
Next, `CN1C(=O)CC[C@H]1C(=O)Nc1cc(O[C@H]2CC[C@H](C(F)(F)F)CC2)cc2c1OCC2` [Compound 150, (S)-1-Methyl-5-oxo-N-(5-(((trans)-4-(trifluoromethyl)cyclohexyl)oxy)-2,3-dihydrobenzofuran-7-yl)pyrrolidine-2-carboxamide]: more than 7.30.
Next, `CN1C(=O)CC[C@@H]1C(=O)Nc1cc(O[C@H]2CC[C@H](C(F)(F)F)CC2)cc2c1OCC2` [Compound 151, (R)-1-Methyl-5-oxo-N-(5-(((trans)-4-(trifluoromethyl)cyclohexyl)oxy)-2,3-dihydrobenzofuran-7-yl)pyrrolidine-2-carboxamide]: more than 7.30.
For `COc1cc(F)c(Oc2ccc(C(F)(F)F)cn2)cc1NC(=O)C1COC(=O)N1C` (centres unmarked) [Compound 152, N-(4-Fluoro-2-methoxy-5-((5-(trifluoromethyl)pyridin-2-yl)oxy)phenyl)-3-methyl-2-oxooxazolidine-4-carboxamide], the pIC50 was more than 7.30.
The same measure for `COc1cc(F)c(Oc2ccc(C(F)(F)F)cn2)cc1NC(=O)C1CNC(=O)N1C` (centres unmarked) [Compound 153, N-(4-Fluoro-2-methoxy-5-((5-(trifluoromethyl)pyridin-2-yl)oxy)phenyl)-3-methyl-2-oxoimidazolidine-4-carboxamide]: more than 7.30; for `COc1cc(F)c(Oc2ccc(C(F)(F)F)cn2)cc1NC(=O)[C@H]1COC(=O)N1C` [Compound 154, (R)—N-(4-Fluoro-2-methoxy-5-((5-(trifluoromethyl)pyridin-2-yl)-oxy)phenyl)-3-methyl-2-oxooxazolidine-4-carboxamide]: more than 7.30.
Next, `COc1cc(F)c(Oc2ccc(C(F)(F)F)cn2)cc1NC(=O)[C@H]1CNC(=O)N1C` [Compound 155, (R)—N-(4-Fluoro-2-methoxy-5-((5-(trifluoromethyl)pyridin-2-yl)oxy)phenyl)-3-methyl-2-oxoimidazolidine-4-carboxamide]: 6.52 to 7.30; `CN1C(=O)NCC1C(=O)Nc1cc(Oc2ccc(C(F)(F)F)cn2)cc2c1OCC2` (centres unmarked) [Compound 159, 3-Methyl-2-oxo-N-(5-((5-(trifluoromethyl)pyridin-2-yl)oxy)-2,3-dihydrobenzo-furan-7-yl)imidazolidine-4-carboxamide]: more than 7.30.
Next, `O=C1CC(C(=O)Nc2cc(Oc3ccc(C(F)(F)F)cn3)cc3c2OCC3)CCN1` (centres unmarked) [Compound 160, 2-Oxo-N-(5-((5-(trifluoromethyl)pyridin-2-yl)oxy)-2,3-dihydrobenzofuran-7-yl)-piperidine-4-carboxamide]: 6.52 to 7.30; `O=C1CCC(C(=O)Nc2cc(Oc3ccc(C(F)(F)F)cn3)cc3c2OCC3)CN1` (centres unmarked) [Compound 161, 6-Oxo-N-(5-((5-(trifluoromethyl)pyridin-2-yl)oxy)-2,3-dihydrobenzofuran-7-yl)piperidine-3-carboxamide]: 6.52 to 7.30.
Turning to `CN1C(=O)CC[C@@H]1C(=O)Nc1cc(Oc2ccc(C(F)(F)F)cn2)cc2c1OCC2` [Compound 162, (R)-1-Methyl-5-oxo-N-(5-((5-(trifluoromethyl)pyridin-2-yl)oxy)-2,3-dihydro-benzofuran-7-yl)pyrrolidine-2-carboxamide], the pIC50 was more than 7.30.
As for `CN1C(=O)CC[C@H]1C(=O)Nc1cc(Oc2ccc(C(F)(F)F)cn2)cc2c1OCC2` [Compound 163, (S)-1-Methyl-5-oxo-N-(5-((5-(trifluoromethyl)pyridin-2-yl)oxy)-2,3-dihydro-benzofuran-7-yl)pyrrolidine-2-carboxamide], the negative logarithm of the IC50 (pIC50) is more than 7.30.
The same measure for `O=C(Nc1cc(Oc2ccc(C(F)(F)F)cn2)cc2c1OCC2)C1CNC(=O)N1C1CC1` (centres unmarked) [Compound 164, 3-Cyclopropyl-2-oxo-N-(5-((5-(trifluoromethyl)pyridin-2-yl)oxy)-2,3-dihydro-benzofuran-7-yl)imidazolidine-4-carboxamide]: more than 7.30; for `O=C(Nc1cc(Oc2ccc(C(F)(F)F)cn2)cc2c1OCC2)[C@@H]1CCC(=O)N1C1CC1` [Compound 165, (S)-1-Cyclopropyl-5-oxo-N-(5-((5-(trifluoromethyl)pyridin-2-yl)oxy)-2,3-dihydrobenzofuran-7-yl)pyrrolidine-2-carboxamide]: more than 7.30; for `O=C(Nc1cc(Oc2ccc(C(F)(F)F)cn2)cc2c1OCC2)[C@H]1CCC(=O)N1C1CC1` [Compound 166, (R)-1-Cyclopropyl-5-oxo-N-(5-((5-(trifluoromethyl)pyridin-2-yl)oxy)-2,3-dihydrobenzofuran-7-yl)pyrrolidine-2-carboxamide]: more than 7.30.
Next, `CCN1C(=O)NCC1C(=O)Nc1cc(Oc2ccc(C(F)(F)F)cn2)cc2c1OCC2` (centres unmarked) [Compound 167, 3-Ethyl-2-oxo-N-(5-((5-(trifluoromethyl)pyridin-2-yl)oxy)-2,3-dihydrobenzo-furan-7-yl)imidazolidine-4-carboxamide]: more than 7.30; `CN1C(=O)NC[C@H]1C(=O)Nc1cc(Oc2ccc(C(F)(F)F)cn2)cc2c1OCC2` [Compound 168, (S)-3-Methyl-2-oxo-N-(5-((5-(trifluoromethyl)pyridin-2-yl)oxy)-2,3-dihydro-benzofuran-7-yl)imidazolidine-4-carboxamide]: more than 7.30; `CN1C(=O)NC[C@@H]1C(=O)Nc1cc(Oc2ccc(C(F)(F)F)cn2)cc2c1OCC2` [Compound 169, (R)-3-Methyl-2-oxo-N-(5-((5-(trifluoromethyl)pyridin-2-yl)oxy)-2,3-dihydro-benzofuran-7-yl)imidazolidine-4-carboxamide]: 6.52 to 7.30.
